In paper PMC3265452 (PLoS Neglected Tropical Diseases, 2012):
Where a name gives a salt, the structure may show the parent alone. Read-outs that look alike come from different tables or passages of the source. Blank lines part the entries; values can stand above or below the molecule they belong to.

What was measured:
[1] = molecular target: T1, AaDOP1 (Aedes aegypti, UniProt H6D5H1); assay: CRELuc reporter dose-response in HEK293 cells stably expressing AaDOP1; format: cell-based
[2] = molecular target: T2, AaDOP2 (Aedes aegypti, UniProt H6D5H2)
T2 sequence (H6D5H2 1-476): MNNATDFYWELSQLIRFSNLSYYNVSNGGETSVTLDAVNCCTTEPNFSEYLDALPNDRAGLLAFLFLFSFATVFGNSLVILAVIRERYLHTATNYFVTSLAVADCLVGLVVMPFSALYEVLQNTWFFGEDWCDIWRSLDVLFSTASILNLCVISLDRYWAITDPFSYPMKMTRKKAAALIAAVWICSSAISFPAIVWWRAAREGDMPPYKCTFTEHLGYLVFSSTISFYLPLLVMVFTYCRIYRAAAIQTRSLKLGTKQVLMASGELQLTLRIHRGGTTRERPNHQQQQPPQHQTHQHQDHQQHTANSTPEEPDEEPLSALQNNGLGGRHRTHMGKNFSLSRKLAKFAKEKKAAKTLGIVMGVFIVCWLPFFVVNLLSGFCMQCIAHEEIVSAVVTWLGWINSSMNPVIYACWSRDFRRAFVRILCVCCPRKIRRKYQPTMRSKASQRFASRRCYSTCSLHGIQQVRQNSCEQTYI

[3] = molecular target: T2, AaDOP2; assay: cell-based
[4] = molecular target: T2, AaDOP2; assay: AaDOP2 antagonist screen of the LOPAC1280 library (HEK-CRELuc-Aadop2 cells, luminescence); format: cell-based; details: for inhibition at 10 µM: read-out: % of the SCH23390 effect (percent inhibition of receptor response relative to the SCH23390 control)
[5] = molecular target: T2, AaDOP2; details: single dose of dopamine 10 µM, n = 3
[6] = molecular target: T1, AaDOP1; details: single dose of dopamine 10 µM, n = 3
[7] = molecular target: T2, AaDOP2; details: for Relative fold selectivity for AaDOP2 vs. hD1: from IC50 values at AaDOP2 and hD1
[8] = system: Ae. aegypti L4-stage larvae (Liverpool strain); assay: whole plant or invertebrate; format: in vivo, Aedes aegypti
Procedure: Single dose-point and dose response in vivo mosquito bioassays were used to assess the toxicity of selected AaDOP2 receptor antagonists identified in the chemical screen. Larvae of Ae. aegypti (Liverpool strain) were reared under standard laboratory conditions on a 12 hr day/night cycle at 75% RH and 28°C, and bioassays were conducted at room temperature (22–24°C). Larvae were transferred from standard rearing trays into six-well tissue culture plates (Corning, Inc. Corning, NY) using a small plastic pipette. Ten L4-stage larvae were included per well, each containing five ml of de-ionized water and the assigned drug concentration. Controls were conducted similarly but lacked a drug treatment. Bioassays employed a double-blind experimental design, and percent mortality was scored 24 hr following administration of drugs. Single dose-point assays were conducted using 400 µM drug and included three biological replicates each consisting of 50–100 larvae. Dose-response assays were conducted using five doses (400, 200, 100, 50, and 25 µM) of the compounds suspended in water, with water alone as a control. Five technical replicates, each including 10 larvae, were performed per dose, and the assay was repeated three times.

[9] = molecular target: T3, human D1 dopamine receptor (hD1) (Homo sapiens, UniProt P21728); assay: cAMP accumulation secondary assay, hD1-expressing cells; format: cell-based
T3 construct: expressed in transfected cells
T3 sequence (P21728 whole entry): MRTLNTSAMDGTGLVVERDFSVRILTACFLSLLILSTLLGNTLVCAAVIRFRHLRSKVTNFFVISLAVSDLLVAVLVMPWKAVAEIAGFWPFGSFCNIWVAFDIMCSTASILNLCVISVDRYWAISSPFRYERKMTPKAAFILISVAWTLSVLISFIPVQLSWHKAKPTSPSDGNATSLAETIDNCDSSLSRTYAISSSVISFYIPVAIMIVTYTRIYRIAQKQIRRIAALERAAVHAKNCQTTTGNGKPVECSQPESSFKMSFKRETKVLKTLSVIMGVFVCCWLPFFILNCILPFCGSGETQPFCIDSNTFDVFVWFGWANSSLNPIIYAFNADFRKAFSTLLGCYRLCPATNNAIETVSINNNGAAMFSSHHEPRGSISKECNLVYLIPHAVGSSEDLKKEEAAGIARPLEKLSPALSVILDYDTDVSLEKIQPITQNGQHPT

[10] = 10 µM SCH23390 in the presence of 1 µM dopamine

T1 sequence (H6D5H1 entry or part of it): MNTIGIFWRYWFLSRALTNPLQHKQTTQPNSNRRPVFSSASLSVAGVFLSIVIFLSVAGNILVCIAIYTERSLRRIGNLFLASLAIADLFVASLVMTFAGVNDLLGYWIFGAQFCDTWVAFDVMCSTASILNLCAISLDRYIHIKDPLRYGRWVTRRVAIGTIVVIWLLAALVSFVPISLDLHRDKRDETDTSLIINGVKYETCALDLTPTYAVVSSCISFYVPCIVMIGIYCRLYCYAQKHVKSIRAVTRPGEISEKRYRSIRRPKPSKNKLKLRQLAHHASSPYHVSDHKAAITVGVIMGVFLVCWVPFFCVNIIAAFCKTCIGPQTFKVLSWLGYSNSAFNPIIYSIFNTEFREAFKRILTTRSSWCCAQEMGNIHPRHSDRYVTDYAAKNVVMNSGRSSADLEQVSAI

- inhibition of dopamine-mediated stimulation of AaDOP1 [1, 10]: robustly inhibited
- inhibition of dopamine-mediated stimulation of AaDOP2 [2, 10]: robustly inhibited
- IC50 [3]: 1600 ± 73 nM
- inhibition at 10 µM [4]: 83%
Structure (SMILES): CN1CCc2cc(Cl)c(O)cc2[C@@H](c2ccccc2)C1 [Compound 446, R(+)-SCH-23390 hydrochloride]

Structure (SMILES): NCCc1ccc(O)c(O)c1 [Compound 603, Dopamine hydrochloride]
- EC50 [1]: 3.1 ± 1.1 nM
- increase of intracellular cAMP [5]: 48±14 fold
- increase of intracellular cAMP [6]: 2.7±0.6 fold

Structure (SMILES): Oc1cc2c(c(Cl)c1O)CCNCC2c1ccccc1 (stereo not drawn) [SKF 81297]
- EC50 ([1]; HEK293 cells stably expressing CRELuc reporter and AaDOP1, read-out: EC50 values AaDOP1): 24 ± 7 nM
- EC50 ([2]; read-out: EC50 values AaDOP2, HEK293 cells stably expressing CRELuc reporter and AaDOP2, ≥10 µM considered lacking intrinsic activity): ≥ 10000 nM

Structure (SMILES): CN(C)CCC=C1c2ccccc2CCc2ccccc21 [Compound 92, Amitriptyline hydrochloride]
- Relative fold selectivity for AaDOP2 vs. hD1 ([7]; listed as Amitriptyline): 36 fold
- Relative fold selectivity for AaDOP2 vs. hD1 ([7]; listed as amitriptyline): more than 30 fold
- LC50 ([8]; Aedes aegypti, 24 h): 78000 nM
- LC90 ([8]; dose-response 25-400 µM, 24 hr): 185000 nM
- average mortality ([8]; single dose-point 400 µM, 24 hours post-treatment): 93%
- IC50 [9]: 470 ± 49 nM
- IC50 [3]: 14 ± 3.4 nM
- Compound effect (percent receptor signaling in presence of test compound, relative lux units relative to the SCH23390 control) [4]: 10
- inhibition at 10 µM [4]: 90%

Structure (SMILES): CSc1ccc2c(c1)C(N1CCN(C)CC1)Cc1ccccc1S2.O=C(O)/C=C\C(=O)O (stereo not drawn) [Methiothepin, methiothepin maleate]
- Relative fold selectivity for AaDOP2 vs. hD1 [7]: 5.7 fold
- IC50 ([7]; read-out: IC50 value (at 3 µM dopamine for AaDOP2), 3 µM dopamine, cAMP accumulation): 14 ± 5.1 nM
- IC50 ([9]; read-out: IC50 value (at 100 nM dopamine for hD1), 100 nM dopamine, cAMP accumulation): 80 ± 11 nM
